Measured values: patent US20260285875A1, “INHIBITORS OF PARG” (858 Therapeutics, Inc., priority 2023, published 2026)

Molecular target: T1, cellular PARG (Homo sapiens, UniProt Q86W56)
T1 construct: endogenous in cells; host or cells: HeLa
Assay: Nuclear PAR accumulation assay (immunofluorescence high-content imaging, MMS-treated HeLa cells)
Type: cell-based
Settings: 1 hour compound then MMS 50 μg/mL for an additional hour
Protocol: HeLa cells were plated at 15,000 cells/well in a 96-well plate the day before compound treatment and then treated with varying concentrations of test compound and incubated for 1 hour at 37° C.+5% CO2. Following test compound treatment, methylmethane sulfonate (MMS) was added to a final concentration of 50 μg/mL and the cells were incubated for an additional hour. Following treatment, the cells were fixed with ice cold 95% methanol and the plates sealed and placed at -20° C. for 15 minutes. The cells were then washed once with phosphate buffered saline (PBS) and permeabilized with 0.10% Triton-X 100 for 20 minutes at room temperature. […] The cells were then washed three times with PBS before incubation with a fluorescently conjugated goat anti-mouse antibody (Invitrogen A32723) diluted 1:500 in 5% FBS+0.1% Tween-20+PBS for 1 hour at room temperature. The cells were again washed three times with PBS and the nuclei labeled by incubating with 1 μg/mL DAPI (4′,6-diamidino-2-phenylindole). Nuclear PAR accumulation was evaluated using high-content fluorescence microscopy. Four fields for each well were acquired at 20× magnification resulting in at least 1,000 cells analyzed per well. […] Both the average intensity per nucleus and percent PAR positive cells were quantified. […] Concentration-response-curves and IC50 values were generated using four parameter logistic curve fit software.
Representative data for exemplary compounds is presented in Table 32, Table 33 and Table 34.

T1 sequence (Q86W56 whole entry): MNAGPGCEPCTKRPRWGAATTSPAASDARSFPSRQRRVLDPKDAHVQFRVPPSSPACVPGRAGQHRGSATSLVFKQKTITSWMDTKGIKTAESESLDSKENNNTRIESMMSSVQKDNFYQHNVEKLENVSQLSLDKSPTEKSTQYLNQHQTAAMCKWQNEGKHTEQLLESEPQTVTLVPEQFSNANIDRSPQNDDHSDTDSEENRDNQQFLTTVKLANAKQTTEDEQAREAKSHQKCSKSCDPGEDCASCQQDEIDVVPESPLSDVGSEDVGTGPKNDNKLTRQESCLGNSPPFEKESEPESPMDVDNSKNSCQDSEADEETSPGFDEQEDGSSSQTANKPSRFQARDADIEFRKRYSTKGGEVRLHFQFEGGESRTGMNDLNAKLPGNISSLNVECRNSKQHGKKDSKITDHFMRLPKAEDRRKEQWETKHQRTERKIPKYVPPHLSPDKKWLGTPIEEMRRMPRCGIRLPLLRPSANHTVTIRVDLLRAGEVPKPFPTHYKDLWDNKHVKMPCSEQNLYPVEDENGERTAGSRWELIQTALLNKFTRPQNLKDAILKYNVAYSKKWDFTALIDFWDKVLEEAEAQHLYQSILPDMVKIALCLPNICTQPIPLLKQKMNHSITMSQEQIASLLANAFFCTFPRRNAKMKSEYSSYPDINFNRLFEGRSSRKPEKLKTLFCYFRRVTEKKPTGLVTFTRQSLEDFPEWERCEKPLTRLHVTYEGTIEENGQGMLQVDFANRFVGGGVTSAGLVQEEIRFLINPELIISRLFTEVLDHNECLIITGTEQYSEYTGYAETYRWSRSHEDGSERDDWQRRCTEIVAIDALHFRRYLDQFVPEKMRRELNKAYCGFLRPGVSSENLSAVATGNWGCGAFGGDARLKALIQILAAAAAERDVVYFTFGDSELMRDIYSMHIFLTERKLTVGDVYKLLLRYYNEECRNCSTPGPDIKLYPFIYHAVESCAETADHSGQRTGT

Row | Compound | IC50 [nM]
1 | [2H]C([2H])(c1cnn(C)c1)N1C(=O)c2cc(S(=O)(=O)NC3(C)CC3)ccc2N2C1=NCC2CNc1ccccn1 (stereo not drawn) [Example 131, 4-((1-methyl-1H-pyrazol-4-yl)methyl-d2)-N-(1-methylcyclopropyl)-5-oxo-1-((pyridin-2-ylamino)methyl)-1,2,4,5-tetrahydroimidazo[1,2-a]quinazoline-7-sulfonamide] | 1000 to 10000
2 | Cn1cc(CN2C(=O)c3cc(S(=O)(=O)NC4(C)CC4)ccc3N3C2=NC[C@H]3C#Cc2ccncc2)cn1 [Example 116, (R)-4-((1-methyl-1H-pyrazol-4-yl)methyl)-N-(1-methylcyclopropyl)-5-oxo-1-(pyridin-4-ylethynyl)-1,2,4,5-tetrahydroimidazo[1,2-a]quinazoline-7-sulfonamide] | < 100
3 | Cn1ncc(C#C[C@@H]2CN=C3N(Cc4cnn5c4CNCC5)C(=O)c4cc(S(=O)(=O)NC5(C)CC5)ccc4N32)n1 [Example 288, (R)-1-((2-methyl-2H-1,2,3-triazol-4-yl)ethynyl)-N-(1-methylcyclopropyl)-5-oxo-4-((4,5,6,7-tetrahydropyrazolo[1,5-a]pyrazin-3-yl)methyl)-1,2,4,5-tetrahydroimidazo[1,2-a]quinazoline-7-sulfonamide] | < 100
4 | CN1CC=C(c2cc(S(=O)(=O)NC3(C)CC3)cc3c2N2CC(C)(C)N=C2N(Cc2cnn(C)c2)C3=O)CC1 [Example 4, 2,2-dimethyl-9-(1-methyl-1,2,3,6-tetrahydropyridin-4-yl)-4-((1-methyl-1H-pyrazol-4-yl)methyl)-N-(1-methylcyclopropyl)-5-oxo-1,2,4,5-tetrahydroimidazo[1,2-a]quinazoline-7-sulfonamide] | < 100
5 | CN1C(=O)c2cc(S(=O)(=O)NC3(C)CC3)ccc2N2C1=NCC2C#Cc1cncc(C#N)c1 (stereo not drawn) [Example 134, 1-((5-cyanopyridin-3-yl)ethynyl)-4-methyl-N-(1-methylcyclopropyl)-5-oxo-1,2,4,5-tetrahydroimidazo[1,2-a]quinazoline-7-sulfonamide] | < 100
6 | [2H]C([2H])(c1cnn(C)c1)N1C(=O)c2cc(S(=O)(=O)NC3(C)CC3)ccc2N2C1=NC[C@H]2C#Cc1cc(C)nn1C [Example 231, (R)-1-((1,3-dimethyl-1H-pyrazol-5-yl)ethynyl)-4-((1-methyl-1H-pyrazol-4-yl)methyl-d2)-N-(1-methylcyclopropyl)-5-oxo-1,2,4,5-tetrahydroimidazo[1,2-a]quinazoline-7-sulfonamide] | < 100
7 | CN1C(=O)c2cc(S(=O)(=O)NC3(C)CC3)ccc2N2C1=NC[C@H]2C#Cc1ccc2c(cnn2C)c1 [Example 148, (R)-4-methyl-1-((1-methyl-1H-indazol-5-yl)ethynyl)-N-(1-methylcyclopropyl)-5-oxo-1,2,4,5-tetrahydroimidazo[1,2-a]quinazoline-7-sulfonamide] | < 100
8 | CN1C(=O)c2cc(S(=O)(=O)NC3(C)CC3)ccc2N2C1=NCC2C#Cc1ccc2nnn(C)c2c1 (stereo not drawn) [Example 172, 4-methyl-1-((1-methyl-1H-benzo[d][1,2,3]triazol-6-yl)ethynyl)-N-(1-methylcyclopropyl)-5-oxo-1,2,4,5-tetrahydroimidazo[1,2-a]quinazoline-7-sulfonamide] | < 100
9 | CN1C(=O)c2cc(S(=O)(=O)NC3(C)CC3)ccc2N2C1=NCC2C#Cc1cnc2ccccn12 (stereo not drawn) [Example 167, 1-(imidazo[1,2-a]pyridin-3-ylethynyl)-4-methyl-N-(1-methylcyclopropyl)-5-oxo-1,2,4,5-tetrahydroimidazo[1,2-a]quinazoline-7-sulfonamide] | < 100
10 | CCn1nccc1C#C[C@@H]1CN=C2N(Cc3cnn(C)c3)C(=O)c3cc(S(=O)(=O)NC4(C)CC4)ccc3N21 [Example 207, (R)-1-((1-ethyl-1H-pyrazol-5-yl)ethynyl)-4-((1-methyl-1H-pyrazol-4-yl)methyl)-N-(1-methylcyclopropyl)-5-oxo-1,2,4,5-tetrahydroimidazo[1,2-a]quinazoline-7-sulfonamide] | < 100
11 | CN1C(=O)c2cc(S(=O)(=O)NC3(C)CC3)ccc2N2C1=NCC2C#Cc1ccc2cnn(C)c2c1 (stereo not drawn) [Example 133, 4-methyl-1-((1-methyl-1H-indazol-6-yl)ethynyl)-N-(1-methylcyclopropyl)-5-oxo-1,2,4,5-tetrahydroimidazo[1,2-a]quinazoline-7-sulfonamide] | < 100
12 | [2H]C([2H])(c1cnn(C)c1)N1C(=O)c2cc(S(=O)(=O)NC3(C)CC3)ccc2N2C1=NC[C@H]2C#Cc1cnc(OC)nc1 [Example 259, (R)-1-((2-methoxypyrimidin-5-yl)ethynyl)-4-((1-methyl-1H-pyrazol-4-yl)methyl-d2)-N-(1-methylcyclopropyl)-5-oxo-1,2,4,5-tetrahydroimidazo[1,2-a]quinazoline-7-sulfonamide] | < 100

Continued, values first:

Row | IC50 [nM] | Compound
13 | 1000 to 10000 | C[C@@H]1CN=C2N(Cc3cnn(C)c3)C(=O)c3cc(S(=O)(=O)NC4(C)CC4)cc(N4CC(C)(N)C4)c3N21 [Example 74, (R)-9-(3-amino-3-methylazetidin-1-yl)-1-methyl-4-((1-methyl-1H-pyrazol-4-yl)methyl)-N-(1-methylcyclopropyl)-5-oxo-1,2,4,5-tetrahydroimidazo[1,2-a]quinazoline-7-sulfonamide]
14 | < 100 | Cn1cc(CN2C(=O)c3cc(S(=O)(=O)NC4(C)CC4)ccc3N3C2=N[C@H]2CCCC[C@H]23)cn1 [Example 145, (7aS,11aR)-6-((1-methyl-1H-pyrazol-4-yl)methyl)-N-(1-methylcyclopropyl)-5-oxo-5,6,7a,8,9,10,11,11a-octahydrobenzo[4,5]imidazo[1,2-a]quinazoline-3-sulfonamide]
15 | < 100 | C[C@@H]1CN=C2N(Cc3cnn(C)c3)C(=O)c3cc(S(=O)(=O)NC4(C)CC4)cc(N4CCC4)c3N21 [Example 2, (R)-9-(azetidin-1-yl)-1-methyl-4-((1-methyl-1H-pyrazol-4-yl)methyl)-N-(1-methylcyclopropyl)-5-oxo-1,2,4,5-tetrahydroimidazo[1,2-a]quinazoline-7-sulfonamide]
16 | < 100 | CCN1C(=O)c2cc(S(=O)(=O)NC3(C)CC3)ccc2N2C1=NC[C@H]2C#Cc1cnn2cccnc12 [Example 190, (R)-4-ethyl-N-(1-methylcyclopropyl)-5-oxo-1-(pyrazolo[1,5-a]pyrimidin-3-ylethynyl)-1,2,4,5-tetrahydroimidazo[1,2-a]quinazoline-7-sulfonamide]
17 | < 100 | CCN1C(=O)c2cc(S(=O)(=O)NC3(C)CC3)c(F)cc2N2C1=N[C@H]1CCC[C@H]12 [Example 264, (7aS,10aR)-6-ethyl-2-fluoro-N-(1-methylcyclopropyl)-5-oxo-6,7a,8,9,10,10a-hexahydro-5H-cyclopenta[4,5]imidazo[1,2-a]quinazoline-3-sulfonamide]
18 | < 100 | C=Cc1cc(CN2C(=O)c3cc(S(=O)(=O)NC4(C)CC4)ccc3N3C2=NC[C@H]3C)ccn1 [Example 255, (R)-1-methyl-N-(1-methylcyclopropyl)-5-oxo-4-((2-vinylpyridin-4-yl)methyl)-1,2,4,5-tetrahydroimidazo[1,2-a]quinazoline-7-sulfonamide]
19 | 100 to 1000 | CC(=O)N1CCn2ncc(CN3C(=O)c4cc(S(=O)(=O)NC5(C)CC5)ccc4N4C3=NC[C@H]4C)c2C1 [Example 279, (R)-4-((5-acetyl-4,5,6,7-tetrahydropyrazolo[1,5-a]pyrazin-3-yl)methyl)-1-methyl-N-(1-methylcyclopropyl)-5-oxo-1,2,4,5-tetrahydroimidazo[1,2-a]quinazoline-7-sulfonamide]
20 | < 100 | CCN1C(=O)c2cc(S(=O)(=O)NC3(C)CC3)ccc2N2C1=NC[C@H]2C#Cc1ccnn1C [Example 198, (R)-4-ethyl-1-((1-methyl-1H-pyrazol-5-yl)ethynyl)-N-(1-methylcyclopropyl)-5-oxo-1,2,4,5-tetrahydroimidazo[1,2-a]quinazoline-7-sulfonamide]
21 | < 100 | CCN1C(=O)c2cc(S(=O)(=O)NC3(C)CC3)ccc2N2C1=NC[C@H]2C#Cc1cn(C)nc1C [Example 265, (R)-1-((1,3-dimethyl-1H-pyrazol-4-yl)ethynyl)-4-ethyl-N-(1-methylcyclopropyl)-5-oxo-1,2,4,5-tetrahydroimidazo[1,2-a]quinazoline-7-sulfonamide]
22 | < 100 | Cn1cc(CN2C(=O)c3cc(S(=O)(=O)NC4(C)CC4)ccc3N3C2=NC[C@H]3C2CCC2)cn1 [Example 118, (R)-1-cyclobutyl-4-((1-methyl-1H-pyrazol-4-yl)methyl)-N-(1-methylcyclopropyl)-5-oxo-1,2,4,5-tetrahydroimidazo[1,2-a]quinazoline-7-sulfonamide]
23 | 100 to 1000 | C[C@@H]1CN=C2N(Cc3cnn(C)c3)C(=O)c3cc(S(=O)(=O)NC4(C)CC4)cc(N4CC[C@@H](N)C4)c3N21 [Example 71, (R)-9-((R)-3-aminopyrrolidin-1-yl)-1-methyl-4-((1-methyl-1H-pyrazol-4-yl)methyl)-N-(1-methylcyclopropyl)-5-oxo-1,2,4,5-tetrahydroimidazo[1,2-a]quinazoline-7-sulfonamide]
24 | < 100 | Cn1cc(CN2C(=O)c3cc(S(=O)(=O)NC4(C)CC4)ccc3N3C2=NC[C@H]3COc2cccc(F)c2)cn1 [Example 30, (S)-1-((3-fluorophenoxy)methyl)-4-((1-methyl-1H-pyrazol-4-yl)methyl)-N-(1-methylcyclopropyl)-5-oxo-1,2,4,5-tetrahydroimidazo[1,2-a]quinazoline-7-sulfonamide]
